Assays:
KDR = KDR (Homo sapiens, UniProt P35968); assay: KDR autophosphorylation ELISA in HUVEC cells; format: cell-based; design: endogenous in cells; host or cells: HUVEC (Lonza #C2519A); conditions: Table 3 Cellular Activities, VEGF165-stimulated, phospho-KDR ELISA
In short: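 HUVEC, 24 h serum-free starvation; cpd 8-pt dilution, 0.3% DMSO final, 1 h; VEGF165 100 ng/mL, 5 min; cold lysis; phospho-KDR ELISA; IC50, 4PL.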

Mer = target: T1, Mer (Homo sapiens, UniProt Q12866); assay: Mer autophosphorylation ELISA in transient transfected 293A cells; format: cell-based; conditions: Table 3 Cellular Activities; MERTK-transfected 293A cells, phospho-Mer ELISA
T1 construct: host or cells: 293A cells (Thermo Fisher #R70507)
T1 sequence (Q12866 21-999): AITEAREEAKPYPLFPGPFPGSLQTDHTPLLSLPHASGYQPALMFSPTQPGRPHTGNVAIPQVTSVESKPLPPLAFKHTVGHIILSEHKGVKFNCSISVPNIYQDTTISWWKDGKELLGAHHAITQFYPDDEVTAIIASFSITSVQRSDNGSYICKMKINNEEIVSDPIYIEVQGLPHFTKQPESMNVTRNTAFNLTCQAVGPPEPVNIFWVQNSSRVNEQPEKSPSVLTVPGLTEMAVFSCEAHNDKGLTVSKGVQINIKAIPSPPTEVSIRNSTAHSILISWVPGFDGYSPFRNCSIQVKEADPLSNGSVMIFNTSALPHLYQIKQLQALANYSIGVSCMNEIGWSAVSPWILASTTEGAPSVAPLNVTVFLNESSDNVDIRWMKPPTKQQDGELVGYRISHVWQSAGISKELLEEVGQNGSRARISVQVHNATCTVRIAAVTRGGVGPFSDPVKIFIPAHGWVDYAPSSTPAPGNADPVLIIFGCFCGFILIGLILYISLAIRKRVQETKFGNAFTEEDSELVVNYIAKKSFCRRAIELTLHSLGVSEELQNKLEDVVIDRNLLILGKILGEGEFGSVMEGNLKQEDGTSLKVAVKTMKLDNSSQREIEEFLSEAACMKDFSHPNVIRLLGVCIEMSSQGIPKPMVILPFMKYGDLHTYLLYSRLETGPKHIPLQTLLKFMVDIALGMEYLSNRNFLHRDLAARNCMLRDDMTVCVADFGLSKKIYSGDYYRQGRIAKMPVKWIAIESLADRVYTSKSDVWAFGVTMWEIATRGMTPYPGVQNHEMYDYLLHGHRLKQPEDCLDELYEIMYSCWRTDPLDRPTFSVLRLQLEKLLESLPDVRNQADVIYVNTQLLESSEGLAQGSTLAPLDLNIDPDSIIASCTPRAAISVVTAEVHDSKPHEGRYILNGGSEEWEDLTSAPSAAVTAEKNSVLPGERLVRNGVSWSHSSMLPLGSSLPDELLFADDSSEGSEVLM
In short: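 293A cells transiently transfected with human MERTK DNA, replated after 24 h, then treated 1 h with 8-point compound dilutions in serum-free medium (0.3% DMSO). Lysates assayed by phospho-Mer sandwich ELISA against phospho-Mer standard; DMSO = 100%, reference inhibitor = 0% activity; IC50 by 4-parameter logistic fit.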

KDR, sequence (P35968 20-1356): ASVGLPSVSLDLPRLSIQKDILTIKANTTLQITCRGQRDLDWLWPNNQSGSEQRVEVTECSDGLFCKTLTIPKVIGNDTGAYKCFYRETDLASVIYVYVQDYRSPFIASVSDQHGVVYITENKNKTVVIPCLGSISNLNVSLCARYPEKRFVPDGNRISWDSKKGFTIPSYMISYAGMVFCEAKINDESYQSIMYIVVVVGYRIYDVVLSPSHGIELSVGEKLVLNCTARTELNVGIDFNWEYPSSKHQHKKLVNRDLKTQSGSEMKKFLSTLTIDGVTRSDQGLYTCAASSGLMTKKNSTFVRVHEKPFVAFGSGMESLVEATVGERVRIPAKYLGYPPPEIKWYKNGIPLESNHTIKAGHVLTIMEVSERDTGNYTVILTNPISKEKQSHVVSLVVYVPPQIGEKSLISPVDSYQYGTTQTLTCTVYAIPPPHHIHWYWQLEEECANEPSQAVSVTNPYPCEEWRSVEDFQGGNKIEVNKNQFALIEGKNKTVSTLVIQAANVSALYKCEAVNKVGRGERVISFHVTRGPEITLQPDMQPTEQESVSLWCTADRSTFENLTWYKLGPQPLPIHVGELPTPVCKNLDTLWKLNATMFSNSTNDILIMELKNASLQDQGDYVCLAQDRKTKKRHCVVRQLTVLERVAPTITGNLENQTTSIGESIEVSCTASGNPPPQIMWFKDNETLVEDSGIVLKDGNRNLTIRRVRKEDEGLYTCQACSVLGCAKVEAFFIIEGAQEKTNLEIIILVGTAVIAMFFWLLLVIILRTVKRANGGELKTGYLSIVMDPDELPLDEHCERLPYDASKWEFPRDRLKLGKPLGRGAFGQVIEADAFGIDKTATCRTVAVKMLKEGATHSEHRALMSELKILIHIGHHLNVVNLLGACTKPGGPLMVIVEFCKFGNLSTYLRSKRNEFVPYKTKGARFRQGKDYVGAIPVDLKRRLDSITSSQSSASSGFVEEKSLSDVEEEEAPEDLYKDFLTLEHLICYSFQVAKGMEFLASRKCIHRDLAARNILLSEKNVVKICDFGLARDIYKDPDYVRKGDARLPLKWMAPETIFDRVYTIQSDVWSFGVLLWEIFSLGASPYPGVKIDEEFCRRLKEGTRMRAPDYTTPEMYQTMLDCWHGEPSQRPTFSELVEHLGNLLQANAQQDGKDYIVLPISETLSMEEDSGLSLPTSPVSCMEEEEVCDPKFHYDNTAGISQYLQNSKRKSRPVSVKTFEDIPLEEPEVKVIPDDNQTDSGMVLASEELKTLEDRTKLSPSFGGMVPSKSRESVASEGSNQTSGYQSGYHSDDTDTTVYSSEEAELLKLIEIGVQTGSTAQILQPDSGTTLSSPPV

SMILES | IC50 (KDR) | IC50 (Mer)
COc1cc2nccc(Oc3ccc(NC(=O)c4ccc(C)n(-c5ncc(F)cc5C)c4=O)cc3F)c2nc1OC [Compound 51, N-[4-[(6,7-Dimethoxy-1,5-naphthyridin-4-yl)oxy]-3-fluorophenyl]-1-(5-fluoro-3-methylpyridin-2-yl)-6-methyl-2-oxopyridine-3-carboxamide] | ≤ 100 nM | ≤ 100 nM
COc1ccc2nccc(Oc3ccc(NC(=O)c4ccc(C)n(-c5ccc(F)cn5)c4=O)cc3F)c2n1 [Compound 47, N-[3-Fluoro-4-[(6-methoxy-1,5-naphthyridin-4-yl)oxy]phenyl]-1-(5-fluoropyridin-2-yl)-6-methyl-2-oxopyridine-3-carboxamide] | ≤ 100 nM | ≤ 100 nM
COCCOc1cc2nccc(Oc3ccc(NC(=O)c4c(C)n(C)c(C)c(-c5ccco5)c4=O)cc3F)c2nc1OC [Compound 254, N-[3-Fluoro-4-[[6-methoxy-7-(2-methoxyethoxy)-1,5-naphthyridin-4-yl]oxy]phenyl]-5-(furan-2-yl)-1,2,6-trimethyl-4-oxopyridine-3-carboxamide] | ≤ 100 nM | ≤ 100 nM
COc1cc2nccc(Oc3ccc(NC(=O)c4ccc(C)n(-c5ccncc5F)c4=O)cc3F)c2nc1OC [Compound 220, N-[4-[(6,7-Dimethoxy-1,5-naphthyridin-4-yl)oxy]-3-fluorophenyl]-1-(3-fluoropyridin-4-yl)-6-methyl-2-oxopyridine-3-carboxamide] | ≤ 100 nM | ≤ 100 nM
COc1cc2nccc(Oc3ccc(NC(=O)c4cnc(C)c(-c5ccco5)c4O)cc3)c2nc1OC [Compound 255, N-[4-[(6,7-Dimethoxy-1,5-naphthyridin-4-yl)oxy]phenyl]-5-(furan-2-yl)-4-hydroxy-6-methylpyridine-3-carboxamide] | ≤ 100 nM | ≤ 100 nM
COc1cc2nccc(Oc3ccc(NC(=O)c4c(C)nc(C)c(-c5ccc(F)cn5)c4O)cc3)c2nc1OC [Compound 216, N-[4-[(6,7-Dimethoxy-1,5-naphthyridin-4-yl)oxy]phenyl]-5-(5-fluoropyridin-2-yl)-4-hydroxy-2,6-dimethylpyridine-3-carboxamide] | ≤ 100 nM | ≤ 100 nM
COCc1nc(C)c(-c2ccc(F)cn2)c(O)c1C(=O)Nc1ccc(Oc2ccnc3cc(OC)c(OC)nc23)c(F)c1 [Compound 214, N-[4-[(6,7-Dimethoxy-1,5-naphthyridin-4-yl)oxy]-3-fluorophenyl]-5-(5-fluoropyridin-2-yl)-4-hydroxy-2-(methoxymethyl)-6-methylpyridine-3-carboxamid] | ≤ 100 nM | ≤ 100 nM
COc1cc2nccc(Oc3ccc(NC(=O)c4c(C)ncc(-c5ncc(F)cc5C)c4O)cc3F)c2nc1OC [Compound 200, N-[4-[(6,7-Dimethoxy-1,5-naphthyridin-4-yl)oxy]-3-fluorophenyl]-5-(5-fluoro-3-methylpyridin-2-yl)-4-hydroxy-2-methylpyridine-3-carboxamide] | ≤ 100 nM | ≤ 100 nM
COc1cc2nccc(Oc3ccc(NC(=O)c4cc(C(C)=O)c(C)n(-c5ccc(F)cn5)c4=O)cc3F)c2nc1OC [Compound 59, 5-Acetyl-N-[4-[(6,7-dimethoxy-1,5-naphthyridin-4-yl)oxy]-3-fluorophenyl]-1-(5-fluoropyridin-2-yl)-6-methyl-2-oxopyridine-3-carboxamide] | 100 to 300 nM | ≤ 100 nM
CCc1c(C(=O)Nc2ccc(Oc3ccnc4cc(OC)c(OC)nc34)c(F)c2)c(=O)c(-c2ccco2)c(C)n1C [Compound 324, N-[4-[(6,7-Dimethoxy-1,5-naphthyridin-4-yl)oxy]-3-fluorophenyl]-2-ethyl-5-(furan-2-yl)-1,6-dimethyl-4-oxopyridine-3-carboxamide] | ≤ 100 nM | ≤ 100 nM
COc1cc2nccc(Oc3ccc(NC(=O)c4c(C)n(C)c(C)c(-c5coc6ccccc56)c4=O)cc3F)c2nc1OC [Compound 262, 5-(1-Benzofuran-3-yl)-N-[4-[(6,7-dimethoxy-1,5-naphthyridin-4-yl)oxy]-3-fluorophenyl]-1,2,6-trimethyl-4-oxopyridine-3-carboxamide] | 300 to 1000 nM | ≤ 100 nM
COc1cc2nccc(Oc3ccc(NC(=O)c4cccn(-c5ccncc5)c4=O)cc3F)c2nc1OC [Compound 229, N-[4-[(6,7-Dimethoxy-1,5-naphthyridin-4-yl)oxy]-3-fluorophenyl]-2-oxo-1-pyridin-4-ylpyridine-3-carboxamide] | ≤ 100 nM | ≤ 100 nM
COc1cc2nccc(Oc3ccc(NC(=O)c4c5n(cc(-c6cccs6)c4=O)CCOC5)cc3)c2nc1OC [Compound 299, N-[4-[(6,7-Dimethoxy-1,5-naphthyridin-4-yl)oxy]phenyl]-8-oxo-7-thiophen-2-yl-3,4-dihydro-1H-pyrido[2,1-c][1,4]oxazine-9-carboxamide] | 300 to 1000 nM | ≤ 100 nM
COc1cc2nccc(Oc3ccc(NC(=O)c4ccc(C)n(-c5ccncc5)c4=O)cc3F)c2nc1OC [Compound 221, N-[4-[(6,7-Dimethoxy-1,5-naphthyridin-4-yl)oxy]-3-fluorophenyl]-6-methyl-2-oxo-1-pyridin-4-ylpyridine-3-carboxamid] | ≤ 100 nM | ≤ 100 nM
COc1cc2nccc(Oc3ccc(NC(=O)c4c(C)n(C)c(C)c(-c5cc6ccccc6o5)c4=O)cc3F)c2nc1OC [Compound 261, 5-(1-Benzofuran-2-yl)-N-[4-[(6,7-dimethoxy-1,5-naphthyridin-4-yl)oxy]-3-fluorophenyl]-1,2,6-trimethyl-4-oxopyridine-3-carboxamide] | 300 to 1000 nM | 100 to 300 nM
COc1cc2nccc(Oc3ccc(NC(=O)c4cn(C)c(C)c(-c5ccc(F)cn5)c4=O)cc3)c2nc1OC [Compound 86, N-[4-[(6,7-Dimethoxy-1,5-naphthyridin-4-yl)oxy]phenyl]-5-(5-fluoropyridin-2-yl)-1,6-dimethyl-4-oxopyridine-3-carboxamide] | 300 to 1000 nM | ≤ 100 nM
COCCOc1cc2nccc(Oc3ccc(NC(=O)c4cnc(C)c(-c5ccco5)c4O)cc3F)c2nc1OC [Compound 260, N-[3-Fluoro-4-[[6-methoxy-7-(2-methoxyethoxy)-1,5-naphthyridin-4-yl]oxy]phenyl]-5-(furan-2-yl)-4-hydroxy-6-methylpyridine-3-carboxamide] | ≤ 100 nM | ≤ 100 nM
COc1cc2nccc(Oc3ccc(NC(=O)c4ccc(C)n(-c5ccc(F)cn5)c4=O)cc3F)c2nc1OC [Compound 43, N-[4-[(6,7-Dimethoxy-1,5-naphthyridin-4-yl)oxy]-3-fluorophenyl]-1-(5-fluoropyridin-2-yl)-6-methyl-2-oxopyridine-3-carboxamide] | ≤ 100 nM | ≤ 100 nM
COc1cc2nccc(Oc3ccc(NC(=O)c4cnc(C)c(-c5cccs5)c4O)cc3)c2nc1OC [Compound 256, N-[4-[(6,7-Dimethoxy-1,5-naphthyridin-4-yl)oxy]phenyl]-4-hydroxy-6-methyl-5-thiophen-2-ylpyridine-3-carboxamide] | ≤ 100 nM | ≤ 100 nM
Cc1ccc(C(=O)Nc2ccc(Oc3ccnc4cnc(Cl)cc34)c(F)c2)c(=O)n1-c1ccc(F)cn1 [Compound 54A, N-[4-[(6-Chloro-1,7-naphthyridin-4-yl)oxy]-3-fluorophenyl]-1-(5-fluoropyridin-2-yl)-6-methyl-2-oxopyridine-3-carboxamide] | 100 to 300 nM | ≤ 100 nM
COc1cc2nccc(Oc3ccc(NC(=O)c4cnc(C)c(-c5ccc(F)cn5)c4O)cc3F)c2nc1OC [Compound 85, N-[4-[(6,7-Dimethoxy-1,5-naphthyridin-4-yl)oxy]-3-fluorophenyl]-5-(5-fluoropyridin-2-yl)-4-hydroxy-6-methylpyridine-3-carboxamide] | ≤ 100 nM | ≤ 100 nM
COCCOc1cc2nccc(Oc3ccc(NC(=O)c4c(C)n(C)c(C)c(-c5cc6ccccc6o5)c4=O)cc3F)c2nc1OC [Compound 263, 5-(1-Benzofuran-2-yl)-N-[3-fluoro-4-[[6-methoxy-7-(2-methoxyethoxy)-1,5-naphthyridin-4-yl]oxy]phenyl]-1,2,6-trimethyl-4-oxopyridine-3-carboxamide] | 300 to 1000 nM | 100 to 300 nM
